Results from PMC9250534, “Synthesis and direct assay of large macrocycle diversities by combinatorial late-stage modification at picomole scale” (Nature Communications, 2022).
Numbered stars: 1 amine (or outer) side, 2 acyl side, 3 side chain; on linkers, the order of the positions; unused ones are H or OH. Bridge positions count the residues as written; N and C are the ends. Square brackets hold non-standard residues; d marks the D form. Peptide text beside a SMILES is read from it. * marks the point of attachment. ξ: configuration not given here. ξPro(4-NHCO(5-Cl-2-thienyl)) = O=C(NC1CNC(C(=O)O)C1)c1ccc(Cl)s1; 2Thenoyl(5-Cl) = O=C(c1ccc(Cl)s1)*; Pyrazinecarbonyl = O=C(c1cnccn1)*; Cysteamide = C(CS[*:3])N[*:1]; Isovaleryl = CC(C)CC(=O)*; 2Furoyl = O=C(c1ccco1)*; Api = NC1(C(=O)O)CCNCC1; Dap = NC[CH](N)C(=O)O; Bz = O=C(c1ccccc1)*; Mpa = O=C(O)CCS

Molecular target: T1, thrombin (Homo sapiens, UniProt P00734)
T1 construct: consists of two polypeptide chains of 36 (light chain) and 259 amino acid
Test: Thrombin inhibition screen of crude macrocycle reactions (residual thrombin activity, fluorogenic substrate Z-Gly-Gly-Arg-AMC)
Format: biochemical
Settings: 10 µM macrocycle concentration; for % thrombin activity, Original screen / % thrombin activity, Repeat screen: macrocycles containing acid 14, crude reaction; for % thrombin activity, Repeat screen: replicate reaction and screen; for percent residual thrombin activity: crude reactions, Library 1a-l, scaffold AA1-AA2-AA3 combined with 1-16 or '-'
In short: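 Each crude macrocycle (10 μM) was preincubated 10 min at room temperature with thrombin (2 nM final) in Tris-Cl pH 7.4 containing NaCl, MgCl2, CaCl2, 0.1% BSA, 0.01% Triton X-100 and 0.6% DMSO. Z-Gly-Gly-Arg-AMC (50 μM final) was then added. Inhibition came from fluorescence slopes relative to DMSO-only controls.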

| % thrombin activity, Original screen [%] | % thrombin activity, Repeat screen [%] | percent residual thrombin activity [%] | Compound |
| --- | --- | --- | --- |
| 87.5 | 88.0 |  | NC(=O)CC[C@@H]1NC(=O)CCSSCCNC(=O)C2(CCN(C(=O)c3ccc(Cl)s3)CC2)NC(=O)c2ccc(cc2)CNC1=O [X Q B3 D6] |
| 96.6 | 90.6 |  | O=C1CCSSCCNC(=O)C2CC(NC(=O)c3ccc(Cl)s3)CN2C(=O)CCNC(=O)C(CO)N1 (stereo not shown) [X S B2 D5] |
| 75.0 | 73.4 |  | CC(C)C1NC(=O)CCSSCCNC(=O)C(CNC(=O)c2ccc(Cl)s2)NC(=O)C2CCCN(C2)C1=O (stereo not shown) [X V B4 D3] |
| 105.0 | 113.7 |  | O=C1CCSSCCNC(=O)C2(CCN(C(=O)c3ccc(Cl)s3)CC2)NC(=O)[C@@H]2CCCN2C(=O)[C@H](Cc2c[nH]c3ccccc23)N1 [X W B1 D6] ([Mpa]WP[Api](2Thenoyl(5-Cl))-Cysteamide; disulfide 1-C) |
| 108.0 | 112.0 |  | O=C1CCSSCCNC(=O)[C@@H](CNC(=O)c2ccc(Cl)s2)NC(=O)[C@H]2CCCN(C2)C(=O)[C@H](Cc2c[nH]c3ccccc23)N1 [X W B4 D4] |
| 103.8 | 106.8 |  | O=C1CCSSCCNC(=O)[C@@H](CNC(=O)c2ccc(Cl)s2)NC(=O)c2cccc(c2)CNC(=O)[C@H](Cc2c[nH]c3ccccc23)N1 [X W B5 D4] |
| 65.4 | 56.1 |  | O=C1CCSSCCNC(=O)[C@H](CNC(=O)c2ccc(Cl)s2)NC(=O)C2(CC2)CNC(=O)[C@H](Cc2c[nH]c3ccccc23)N1 [X W B6 D3] |
| 113.1 | 119.4 |  | O=C1CCSSCCNC(=O)C2CCCN2C(=O)C2CC(NC(=O)c3ccc(Cl)s3)CN2C(=O)C(Cc2c[nH]c3ccccc23)N1 (stereo not shown) [X W D5 B1] ([Mpa]W[ξPro(4-NHCO(5-Cl-2-thienyl))]P-Cysteamide; disulfide 1-C; configuration not given here) |
| 97.9 | 97.0 |  | O=C1CCSSCCNC(=O)C2CCCN(C2)C(=O)C(CCCCNC(=O)c2ccc(Cl)s2)NC(=O)C(Cc2ccc(O)cc2)N1 (stereo not shown) [X Y D1 B4] |
| 92.3 | 97.0 |  | O=C1CCSSCCNC(=O)C2CCCN2C(=O)C2CC(NC(=O)c3ccc(Cl)s3)CN2C(=O)C(Cc2ccc(O)cc2)N1 (stereo not shown) [X Y D5 B1] ([Mpa]Y[ξPro(4-NHCO(5-Cl-2-thienyl))]P-Cysteamide; disulfide 1-C; configuration not given here) |
| 106.8 | 115.5 |  | CC1NC(=O)CCSSCCNC(=O)C(CCCCNC(=O)c2ccc(Cl)s2)NC(=O)C2CCCN2C1=O (stereo not shown) [X a B1 D1] ([Mpa]APK(2Thenoyl(5-Cl))-Cysteamide; disulfide 1-C; configuration not given here) |
| 95.2 | 101.4 |  | C[C@H]1NC(=O)CCSSCCNC(=O)[C@H](CCCCNC(=O)c2ccc(Cl)s2)NC(=O)CCNC1=O [X a B2 D1] |
| 107.0 | 109.1 |  | C[C@H]1NC(=O)CCSSCCNC(=O)[C@H]2CCCN(C2)C(=O)[C@H](CCCCNC(=O)c2ccc(Cl)s2)NC1=O [X a D1 B4] |
| 102.5 | 104.4 |  | CC1NC(=O)CCSSCCNC(=O)c2cccc(c2)CNC(=O)C(CCCCNC(=O)c2ccc(Cl)s2)NC1=O (stereo not shown) [X a D1 B5] |
| 97.7 | 98.7 |  | CC1NC(=O)CCSSCCNC(=O)C2CCCN(C2)C(=O)C(CNC(=O)c2ccc(Cl)s2)NC1=O (stereo not shown) [X a D3 B4] |
| 108.4 | 109.8 |  | CC1NC(=O)CCSSCCNC(=O)C2CCCN2C(=O)C(CNC(=O)c2ccc(Cl)s2)NC1=O (stereo not shown) [X a D4 B1] ([Mpa]A[Dap](2Thenoyl(5-Cl))P-Cysteamide; disulfide 1-C; configuration not given here) |
| 110.0 | 116.2 |  | C[C@H]1NC(=O)CCSSCCNC(=O)c2ccc(cc2)CNC(=O)[C@@H]2C[C@H](NC(=O)c3ccc(Cl)s3)CN2C1=O [X a D5 B3] |
| 95.3 | 101.2 |  | O=C1CCSSCCNC(=O)C2CC(NC(=O)c3ccc(Cl)s3)CN2C(=O)CCNC(=O)C(Cc2ccccc2)N1 (stereo not shown) [X f B2 D5] |
| 91.9 | 99.4 |  | O=C1CCSSCCNC(=O)C2CC(NC(=O)c3ccc(Cl)s3)CN2C(=O)C2CCCN(C2)C(=O)C(Cc2ccccc2)N1 (stereo not shown) [X f B4 D5] |
| 100.5 | 105.5 |  | O=C1CCSSCCNC(=O)c2ccc(cc2)CNC(=O)[C@H](CCCCNC(=O)c2ccc(Cl)s2)NC(=O)[C@@H](Cc2ccccc2)N1 [X f D1 B3] |
| 97.4 | 95.6 |  | O=C1CCNC(=O)C2(CCN(C(=O)c3ccc(Cl)s3)CC2)NC(=O)[C@@H](Cc2ccccc2)NC(=O)CCSSCCN1 [X f D6 B2] |

| % thrombin activity, Original screen [%] | % thrombin activity, Repeat screen [%] | percent residual thrombin activity [%] | Compound |
| --- | --- | --- | --- |
| 104.7 | 110.4 |  | O=C1CCSSCCNC(=O)C2(CCN(C(=O)c3ccc(Cl)s3)CC2)NC(=O)[C@@H]2CCCN2C(=O)[C@@H](CO)N1 [X s B1 D6] ([Mpa][dS]P[Api](2Thenoyl(5-Cl))-Cysteamide; disulfide 1-C) |
| 97.6 | 99.9 |  | O=C1CCSSCCNC(=O)C2CCCN2C(=O)C2(CCN(C(=O)c3ccc(Cl)s3)CC2)NC(=O)C(CO)N1 (stereo not shown) [X s D6 B1] ([Mpa]S[Api](2Thenoyl(5-Cl))P-Cysteamide; disulfide 1-C; configuration not given here) |
| 93.8 | 97.7 |  | O=C1CCSSCCNC(=O)[C@H]2CCCN(C2)C(=O)C2(CCN(C(=O)c3ccc(Cl)s3)CC2)NC(=O)[C@@H](CO)N1 [X s D6 B4] |
| 103.4 | 104.1 |  | CC(C)[C@H]1NC(=O)CCSSCCNC(=O)c2cccc(c2)CNC(=O)[C@@H](CNC(=O)c2ccc(Cl)s2)NC1=O [X v D4 B5] |
| 95.1 | 100.3 |  | O=C1CCSSCCNC(=O)c2cccc(c2)CNC(=O)[C@@H](CNC(=O)c2ccc(Cl)s2)NC(=O)[C@@H](Cc2c[nH]c3ccccc23)N1 [X w D4 B5] |
| 89.3 | 97.3 |  | O=C1CCSSCCNC(=O)C2(CC2)CNC(=O)C2(CCN(C(=O)c3ccc(Cl)s3)CC2)NC(=O)[C@@H](Cc2c[nH]c3ccccc23)N1 [X w D6 B6] |
| 109.6 | 115.2 |  | O=C1CCSSCCNC(=O)C2CCCN(C2)C(=O)C2CC(NC(=O)c3ccc(Cl)s3)CN2C(=O)C(Cc2ccc(O)cc2)N1 (stereo not shown) [X y D5 B4] |
|  |  | 103.469 | O=C1CCSSCCNC(=O)[C@H]2CCCN(C2)C(=O)[C@H](CCCCNC(=O)c2c[nH]c(=O)cn2)NC(=O)[C@H](Cc2ccc(O)cc2)N1 [Y-D1-B4/9] |
|  |  | 101.956 | COc1ccc(C(=O)NCCCC[C@@H]2NC(=O)[C@H](Cc3ccc(O)cc3)NC(=O)CCSSCCNC(=O)[C@H]3CCCN(C3)C2=O)cn1 [Y-D1-B4/10] |
|  |  | 107.832 | O=C1CCSSCCNC(=O)[C@H]2CCCN(C2)C(=O)[C@H](CCCCNC(=O)c2c[nH]c(=O)[nH]c2=O)NC(=O)[C@H](Cc2ccc(O)cc2)N1 [Y-D1-B4/11] |
|  |  | 97.8547 | O=C1CCSSCCNC(=O)[C@H]2CCCN(C2)C(=O)[C@H](CCCCNC(=O)c2ccc(Cl)s2)NC(=O)[C@H](Cc2ccc(O)cc2)N1 [Y-D1-B4/14] |
|  |  | 104.272 | Cc1nnsc1C(=O)NCCCC[C@@H]1NC(=O)[C@H](Cc2ccc(O)cc2)NC(=O)CCSSCCNC(=O)[C@H]2CCCN(C2)C1=O [Y-D1-B4/15] |
|  |  | 108.211 | NCCCC[C@@H]1NC(=O)[C@H](Cc2ccc(O)cc2)NC(=O)CCSSCCNC(=O)[C@H]2CCCN(C2)C1=O [Y-D1-B4/-] |
|  |  | 107.016 | CC1NC(=O)CCSSCCNC(=O)C(CCCCNC(=O)c2ccccc2)NC(=O)C2CCCN2C1=O (stereo not shown) [a-B1-D1/1] ([Mpa]APK(Bz)-Cysteamide; disulfide 1-C; configuration not given here) |
|  |  | 113.236 | C[C@H]1NC(=O)CCSSCCNC(=O)[C@H](CCCCNC(=O)c2cnccn2)NC(=O)[C@@H]2CCCN2C1=O [a-B1-D1/2] ([Mpa][dA]PK(Pyrazinecarbonyl)-Cysteamide; disulfide 1-C) |
|  |  | 110.343 | CC(C)CC(=O)NCCCC[C@@H]1NC(=O)[C@@H]2CCCN2C(=O)[C@@H](C)NC(=O)CCSSCCNC1=O [a-B1-D1/8] ([Mpa][dA]PK(Isovaleryl)-Cysteamide; disulfide 1-C) |
|  |  | 111.353 | C[C@H]1NC(=O)CCSSCCNC(=O)[C@H](CCCCNC(=O)c2ccco2)NC(=O)[C@@H]2CCCN2C1=O [a-B1-D1/16] ([Mpa][dA]PK(2Furoyl)-Cysteamide; disulfide 1-C) |
|  |  | 107.599 | C[C@H]1NC(=O)CCSSCCNC(=O)[C@H](CCCCNC(=O)c2ccccc2)NC(=O)CCNC1=O [a-B2-D1/1] |
|  |  | 102.459 | C[C@H]1NC(=O)CCSSCCNC(=O)[C@H](CCCCNC(=O)c2c[nH]c(=O)cn2)NC(=O)CCNC1=O [a-B2-D1/9] |
|  |  | 107.663 | C[C@H]1NC(=O)CCSSCCNC(=O)[C@H](CCCCNC(=O)c2c[nH]c(=O)[nH]c2=O)NC(=O)CCNC1=O [a-B2-D1/11] |
|  |  | 107.587 | C[C@H]1NC(=O)CCSSCCNC(=O)[C@H](CCCCNC(=O)c2ccco2)NC(=O)CCNC1=O [a-B2-D1/16] |
